Usually Dmax stands for the greatest extent of degradation seen. The term DC50 denotes the concentration giving 50% degradation. A lower DC50 goes with a more potent degrader.

We go through 21 compounds from US12673936B2, “Isoindolinone compounds, and uses thereof” (HANGZHOU GLUBIO PHARMACEUTICAL CO., LTD., priority 2021, dated 2026).

Test [1] has as its target HiBiT tagged CK1α (Homo sapiens, UniProt P48729+Q96SW2). Nature of the test: CK1α degradation assay (HiBiT assay). The class given is cell-based. The following applies: 20 hours; for Dmax: HT-1080, HT-1080 cells; for Dmax / HiBiT CK1α: Dmax: maximum CK1α degradation; for DC50 / HiBiT CK1α: Dmax: HT-1080 cells; for DC50: concentration at 50% CK1α degradation. How it is done: (§1) CK1α and GSPT1 Degradation Assay (HiBiT Assay) The following is an example of an assay that can be used to determine the dose-dependent CK1α and GSPT1 degradation activities of test compounds in a human cell line such as HT-1080 ([…]). HT-1080 cells stably overexpressing wild-type CRBN, GSPT1A(1-138)/G575N mutant and HiBiT tagged CK1α or GSPT1 were seeded into 384-well plates (Cat #3764, Corning) pre-spotted with DMSO or test compounds. Increasing concentrations of test compounds (ranging from 3.162×10^-4 μM to 10 μM at a 3.16-fold increment) or DMSO were dispensed into an empty 384-well plate using an Echo Acoustic Liquid Handler (Beckman Coulter). About 10,000 cells in complete DMEM cell culture media were seeded per well. […] Luminescence was then measured with an EnVision plate reader (PerkinElmer) or a PHERAstar plate reader (BMG Labtech). All CK1α or GSPT1 degradation curves were processed using Collaborative Drug Discovery Vault softwares (Burlingame, CA., www.collaborativedrug.com). CK1α or GSPT1 levels in compound-treated wells were normalized to that of DMSO control and expressed as Percent of Control (PoC, y). […]
Background: HiBiT is a short tag that completes a luciferase, so light tracks the accessible tagged protein.

The target of test [2] is HiBiT tagged GSPT1 (Homo sapiens, UniProt P15170+Q96SW2). Nature of the test: GSPT1 degradation assay (HiBiT assay). The class given is cell-based. The conditions noted are these: 20 hours, maximum GSPT1 degradation; for Dmax: HT-1080, HT-1080 cells; for HiBiT GSPT1: Dmax: HT-1080 cells. How it is done:
as §1

Sequence of HiBiT tagged CK1α (P48729 whole entry): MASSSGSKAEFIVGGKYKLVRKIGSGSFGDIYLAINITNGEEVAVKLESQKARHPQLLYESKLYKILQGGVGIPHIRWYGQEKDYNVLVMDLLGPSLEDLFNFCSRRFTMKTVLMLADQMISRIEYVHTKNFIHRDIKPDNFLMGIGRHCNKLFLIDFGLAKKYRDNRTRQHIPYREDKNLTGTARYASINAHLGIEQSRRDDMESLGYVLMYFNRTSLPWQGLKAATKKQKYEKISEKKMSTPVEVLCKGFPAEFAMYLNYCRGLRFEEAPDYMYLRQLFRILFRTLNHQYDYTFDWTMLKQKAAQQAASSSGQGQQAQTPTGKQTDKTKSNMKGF
Sequence of HiBiT tagged CK1α (Q96SW2 whole entry): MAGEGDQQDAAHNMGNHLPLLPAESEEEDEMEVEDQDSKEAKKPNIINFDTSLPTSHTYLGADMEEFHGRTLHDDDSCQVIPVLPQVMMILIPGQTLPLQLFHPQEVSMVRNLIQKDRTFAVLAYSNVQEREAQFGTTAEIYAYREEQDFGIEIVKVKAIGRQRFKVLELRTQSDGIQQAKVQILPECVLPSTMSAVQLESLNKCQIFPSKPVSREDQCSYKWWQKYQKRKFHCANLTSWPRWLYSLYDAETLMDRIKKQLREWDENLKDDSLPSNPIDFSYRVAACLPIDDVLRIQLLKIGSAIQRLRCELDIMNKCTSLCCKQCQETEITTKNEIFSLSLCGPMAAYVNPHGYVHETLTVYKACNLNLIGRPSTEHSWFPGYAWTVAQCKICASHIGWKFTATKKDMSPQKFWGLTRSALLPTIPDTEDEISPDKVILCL
Sequence of HiBiT tagged CK1α (Q16531 whole entry partner): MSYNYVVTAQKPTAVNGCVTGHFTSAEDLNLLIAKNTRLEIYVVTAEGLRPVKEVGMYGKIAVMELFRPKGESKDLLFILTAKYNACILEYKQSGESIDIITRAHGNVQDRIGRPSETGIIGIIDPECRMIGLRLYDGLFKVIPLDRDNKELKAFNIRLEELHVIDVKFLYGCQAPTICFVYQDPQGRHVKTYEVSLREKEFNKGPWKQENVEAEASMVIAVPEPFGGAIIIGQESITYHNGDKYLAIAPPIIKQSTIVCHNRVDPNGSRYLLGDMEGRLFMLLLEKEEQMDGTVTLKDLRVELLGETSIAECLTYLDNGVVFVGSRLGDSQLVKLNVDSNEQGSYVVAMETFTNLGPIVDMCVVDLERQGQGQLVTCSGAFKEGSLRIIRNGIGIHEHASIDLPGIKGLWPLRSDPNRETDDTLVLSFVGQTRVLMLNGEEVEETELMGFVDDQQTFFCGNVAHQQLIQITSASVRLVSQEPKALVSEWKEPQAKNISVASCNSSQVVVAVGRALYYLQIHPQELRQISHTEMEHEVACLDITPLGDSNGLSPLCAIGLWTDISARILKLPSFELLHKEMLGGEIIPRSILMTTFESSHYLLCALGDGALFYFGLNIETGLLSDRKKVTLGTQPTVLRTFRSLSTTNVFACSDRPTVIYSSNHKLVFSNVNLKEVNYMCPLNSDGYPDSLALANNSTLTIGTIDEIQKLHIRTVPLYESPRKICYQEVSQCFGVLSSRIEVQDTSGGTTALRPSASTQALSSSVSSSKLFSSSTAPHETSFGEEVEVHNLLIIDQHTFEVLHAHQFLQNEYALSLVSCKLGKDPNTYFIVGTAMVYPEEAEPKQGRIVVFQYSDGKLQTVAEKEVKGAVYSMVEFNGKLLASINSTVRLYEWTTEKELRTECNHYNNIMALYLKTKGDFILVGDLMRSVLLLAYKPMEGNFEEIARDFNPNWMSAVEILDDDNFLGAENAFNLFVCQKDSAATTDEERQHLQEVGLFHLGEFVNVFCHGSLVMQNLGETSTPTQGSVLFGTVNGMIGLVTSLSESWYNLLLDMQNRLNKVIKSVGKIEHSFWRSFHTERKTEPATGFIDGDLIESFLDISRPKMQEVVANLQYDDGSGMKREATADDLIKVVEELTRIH
Sequence of HiBiT tagged GSPT1 (P15170 whole entry): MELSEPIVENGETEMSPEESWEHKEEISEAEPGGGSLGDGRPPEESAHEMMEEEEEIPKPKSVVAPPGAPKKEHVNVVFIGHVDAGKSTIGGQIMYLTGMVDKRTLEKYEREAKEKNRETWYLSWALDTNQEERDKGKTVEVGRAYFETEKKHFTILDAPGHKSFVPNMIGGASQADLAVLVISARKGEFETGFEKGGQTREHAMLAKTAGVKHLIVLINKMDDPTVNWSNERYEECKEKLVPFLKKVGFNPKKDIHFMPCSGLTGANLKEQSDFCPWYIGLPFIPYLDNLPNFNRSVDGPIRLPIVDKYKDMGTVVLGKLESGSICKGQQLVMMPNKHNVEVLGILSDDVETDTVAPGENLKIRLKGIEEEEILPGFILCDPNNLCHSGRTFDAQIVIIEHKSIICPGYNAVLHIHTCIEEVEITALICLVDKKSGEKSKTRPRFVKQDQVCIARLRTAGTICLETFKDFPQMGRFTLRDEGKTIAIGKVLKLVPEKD
Sequence of HiBiT tagged GSPT1 (Q96SW2 whole entry): as the sequence (Q96SW2 whole entry) above
Sequence of HiBiT tagged GSPT1 (Q16531 whole entry partner): as the sequence (Q16531 whole entry partner) above

In test [1], `O=C1CC[C@H](N2Cc3cc(C(=O)N[C@H](c4ccc(F)c(F)c4)C4CCC4)ccc3C2=O)C(=O)N1` (racemic) [Compound 46, N-((*R)-cyclobutyl(3,4-difluorophenyl)methyl)-2-((*S)-2,6-dioxopiperidin-3-yl)-1-oxoisoindoline-5-carboxamide] had a Dmax of 54.6% and a DC50 of 1.3 µM. Also, the Dmax in test [2] is 32.4%.

With `O=C1CC[C@H](N2Cc3cc(C(=O)N[C@H](c4ccc(F)c(F)c4)C4CCC4)ccc3C2=O)C(=O)N1` (racemic) [Compound 48, N-((*S)-cyclobutyl(3,4-difluorophenyl)methyl)-2-((S)-2,6-dioxopiperidin-3-yl)-1-oxoisoindoline-5-carboxamide], in test [1], it took 0.13 µM to reach half-maximal degradation (DC50) and the “HiBiT CK1α: Dmax” value is 66.2%. Also, in test [2], the “HiBiT GSPT1: Dmax” value amounted to 26.2%.

`O=C1CC[C@@H](N2Cc3cc(C(=O)N[C@H](c4ccc(F)cc4Cl)C4CCC4)ccc3C2=O)C(=O)N1` (racemic) [Compound 50, N-((*S)-(2-chloro-4-fluorophenyl)(cyclobutyl)methyl)-2-((*R)-2,6-dioxopiperidin-3-yl)-1-oxoisoindoline-5-carboxamide]: in test [1], the Dmax was found to be 63.1% and half-maximal degradation (DC50) was put at 0.237 µM. In test [2], this compound had a Dmax of 42.7%.

Turning to `O=C1CC[C@H](N2Cc3cc(C(=O)N[C@H](c4ccc(F)cc4Cl)C4CCC4)ccc3C2=O)C(=O)N1` (racemic) [Compound 51, N-((*S)-(2-chloro-4-fluorophenyl)(cyclobutyl)methyl)-2-((*S)-2,6-dioxopiperidin-3-yl)-1-oxoisoindoline-5-carboxamide], in test [1], the maximal degradation (Dmax) was 62.3% and the DC50 turned out to be 0.142 µM. For the same compound, the Dmax in test [2] was found to be 46%.

For the compound `O=C1CC[C@@H](N2Cc3cc(C(=O)N[C@H](c4ccc(F)cc4Cl)C4CCC4)ccc3C2=O)C(=O)N1` (racemic) [Compound 52, N-((*S)-(2-chloro-4-fluorophenyl)(cyclobutyl)methyl)-2-((*R)-2,6-dioxopiperidin-3-yl)-1-oxoisoindoline-5-carboxamide], in test [1], it took 0.095 µM to reach half-maximal degradation (DC50) and the “HiBiT CK1α: Dmax” value was 73.9%. Also, in test [2], the “HiBiT GSPT1: Dmax” value amounted to 28.5%.

In test [1], `O=C1CC[C@@H](N2Cc3cc(C(=O)N[C@H](c4ccc(Cl)cc4F)C4CCC4)ccc3C2=O)C(=O)N1` (racemic) [Compound 54, N-((*S)-(4-chloro-2-fluorophenyl)(cyclobutyl)methyl)-2-((*R)-2,6-dioxopiperidin-3-yl)-1-oxoisoindoline-5-carboxamide] registered a Dmax of 56.5% and a DC50 of 1.11 µM. The “HiBiT GSPT1: Dmax” value in test [2] came out at 47.9%.

In test [1], `O=C1CC[C@H](N2Cc3cc(C(=O)N[C@H](c4ccc(Cl)cc4F)C4CCC4)ccc3C2=O)C(=O)N1` (racemic) [Compound 55, N-((*S)-(4-chloro-2-fluorophenyl)(cyclobutyl)methyl)-2-((*S)-2,6-dioxopiperidin-3-yl)-1-oxoisoindoline-5-carboxamide] came in with a Dmax of 57.8% and a DC50 of 0.948 µM. For the same compound, the “HiBiT GSPT1: Dmax” value in test [2] is recorded as 48%.

Regarding `O=C1CC[C@@H](N2Cc3cc(C(=O)N[C@H](c4ccc(Cl)cc4F)C4CCC4)ccc3C2=O)C(=O)N1` (racemic) [Compound 56, N-((*S)-(4-chloro-2-fluorophenyl)(cyclobutyl)methyl)-2-((*R)-2,6-dioxopiperidin-3-yl)-1-oxoisoindoline-5-carboxamide], in test [1], the DC50 worked out at 0.0937 µM and the “HiBiT CK1α: Dmax” value stood at 63.6%. Further, the “HiBiT GSPT1: Dmax” value in test [2] was 15.3%.

For `O=C1CC[C@H](N2Cc3cc(C(=O)N[C@H](c4ccc(Cl)cc4F)C4CCC4)ccc3C2=O)C(=O)N1` (racemic) [Compound 57, N-((*S)-(4-chloro-2-fluorophenyl)(cyclobutyl)methyl)-2-((*S)-2,6-dioxopiperidin-3-yl)-1-oxoisoindoline-5-carboxamide], in test [1], the DC50 was 0.128 µM and the “HiBiT CK1α: Dmax” value is on record as 64.4%. In addition, in test [2], the “HiBiT GSPT1: Dmax” value is on record as 19.1%.

For `O=C1CC[C@H](N2Cc3cc(C(=O)N[C@H](c4ccc(F)cc4)C4CCCC4)ccc3C2=O)C(=O)N1` (racemic) [Compound 60, N-((*R)-cyclopentyl(4-fluorophenyl)methyl)-2-((S)-2,6-dioxopiperidin-3-yl)-1-oxoisoindoline-5-carboxamide], in test [1], the DC50 is < 0.0471 µM and the “HiBiT CK1α: Dmax” value came out at 49%. The compound further displayed a Dmax in test [2] of 27.4%.

For the compound `O=C1CCC(N2Cc3cc(C(=O)N[C@H](c4ccc(F)cc4)C4CCCC4)ccc3C2=O)C(=O)N1` (mixture of isomers) [Compound 61, N-((*S)-cyclopentyl(4-fluorophenyl)methyl)-2-((R)-2,6-dioxopiperidin-3-yl)-1-oxoisoindoline-5-carboxamide], the Dmax in test [1] came out at 49.5%; in test [2] it was 29.3%.

`O=C1CC[C@H](N2Cc3cc(C(=O)N[C@H](c4ccc(F)cc4)C4CCCC4)ccc3C2=O)C(=O)N1` (racemic) [Compound 63, N-((*S)-cyclopentyl(4-fluorophenyl)methyl)-2-((S)-2,6-dioxopiperidin-3-yl)-1-oxoisoindoline-5-carboxamide]: in test [1], it took 0.0535 µM to reach half-maximal degradation (DC50) and the “HiBiT CK1α: Dmax” value came out at 72.2%. Moreover, in test [2], the “HiBiT GSPT1: Dmax” value came out at 29%.

In test [1], `O=C1CCC(N2Cc3cc(C(=O)NC(c4ccc(F)c(F)c4)C4CCC4)ccc3C2=O)C(=O)N1` (single isomer, unassigned) [Compound 47, N-((*R)-cyclobutyl(3,4-difluorophenyl)methyl)-2-((*R)-2,6-dioxopiperidin-3-yl)-1-oxoisoindoline-5-carboxamide] yielded a Dmax of 56.1% and a DC50 of 2.96 µM. In addition, the Dmax in test [2] is 29.7%.

Regarding `O=C1CC[C@@H](N2Cc3cc(C(=O)NC(c4ccc(F)c(F)c4)C4CCC4)ccc3C2=O)C(=O)N1` (single isomer, unassigned) [Compound 49, N-((*S)-cyclobutyl(3,4-difluorophenyl)methyl)-2-((R)-2,6-dioxopiperidin-3-yl)-1-oxoisoindoline-5-carboxamide], the Dmax in test [1] was determined as 68.6%; in test [2], 28.6%. In test [1], this compound returned a DC50 of 0.112 µM.

For `O=C1CCC(N2Cc3cc(C(=O)NC(c4ccc(F)cc4Cl)C4CCC4)ccc3C2=O)C(=O)N1` (single isomer, unassigned) [Compound 53, N-((*S)-(2-chloro-4-fluorophenyl)(cyclobutyl)methyl)-2-((*S)-2,6-dioxopiperidin-3-yl)-1-oxoisoindoline-5-carboxamide], in test [1], the Dmax was determined as 70.2% and half-maximal degradation (DC50) was put at 0.118 µM. The compound further returned a Dmax in test [2] of 24.2%.

In test [1], `O=C1CC[C@@H](N2Cc3cc(C(=O)NC(c4ccc(F)cc4)C4CCCC4)ccc3C2=O)C(=O)N1` (single isomer, unassigned) [Compound 62, N-((*S)-cyclopentyl(4-fluorophenyl)methyl)-2-((R)-2,6-dioxopiperidin-3-yl)-1-oxoisoindoline-5-carboamide] showed a Dmax of 69.8% and a DC50 of 0.0777 µM. In test [2], this compound came in with a Dmax of 27.5%.

Consider `O=C1CCC(N2Cc3cc(C(=O)N[C@@H](c4ccc(Cl)cc4)C4CC4)ccc3C2=O)C(=O)N1` (stereo in doubt) [Compound 2, N—((*R)-(4-chlorophenyl)(cyclopropyl)methyl)-2-(2,6-dioxopiperidin-3-yl)-1-oxoisoindoline-5-carboxamide], for which, in test [1], the 50% degradation concentration (DC50) came out at 0.18 µM and the “HiBiT CK1α: Dmax” value is 67%. In addition, in test [2], the “HiBiT GSPT1: Dmax” value is given as 33.6%.

In test [1], `O=C1CCC(N2Cc3cc(C(=O)N[C@H](c4ccc(Cl)cc4)C4CC4)ccc3C2=O)C(=O)N1` (stereo in doubt) [Compound 3, N—((*S)-(4-chlorophenyl)(cyclopropyl)methyl)-2-(2,6-dioxopiperidin-3-yl)-1-oxoisoindoline-5-carboxamide] had a Dmax of 50.6% and a DC50 of 5.19 µM. Moreover, in test [2], the Dmax turned out to be 73.1%.

Regarding `O=C1CCC(N2Cc3cc(C(=O)N[C@H](c4ccc(F)cc4)C4CC4)ccc3C2=O)C(=O)N1` (stereo in doubt) [Compound 10, N-((*S)-cyclopropyl(4-fluorophenyl)methyl)-2-(2,6-dioxopiperidin-3-yl)-1-oxoisoindoline-5-carboxamide], the Dmax in test [1] came out at 60.8%; in test [2] it was 36%. Further, the DC50 in test [1] turned out to be 0.706 µM.

In test [1], `O=C1CCC(N2Cc3cc(C(=O)N[C@H](c4ccccc4F)C4CC4)ccc3C2=O)C(=O)N1` (stereo in doubt) [Compound 11, N-((*S)-cyclopropyl(2-fluorophenyl)methyl)-2-(2,6-dioxopiperidin-3-yl)-1-oxoisoindoline-5-carboxamide] had a Dmax of 64.7% and a DC50 of 0.308 µM. Besides, the Dmax in test [2] was 23.4%.

In the case of `O=C1CCC(N2Cc3cc(C(=O)N[C@H](c4ccccc4Cl)C4CC4)ccc3C2=O)C(=O)N1` (stereo in doubt) [Compound 12, N-((*S)-(2-chlorophenyl)(cyclopropyl)methyl)-2-(2,6-dioxopiperidin-3-yl)-1-oxoisoindoline-5-carboxamide], the Dmax in test [1] is 64.7%; in test [2] it was 36.8%. Moreover, the DC50 in test [1] was found to be 0.14 µM.
